Conditions: especially when diluted with cream to <20% (w/w)
Text: The phototoxic compounds can be mixed with the carrier in a solubilized form.

## COCCO [2-methoxy ethanol]
  toxicity to human skin: no toxicity

Source: US20030083324A1, “Photosensitizing ointment” (CeramOptec Industries, Inc., priority 2000, published 2003)
